From patent US10167262B2, “Herbicidal substituted 3-arylpyrazoles” (FMC CORPORATION, priority 2014, dated 2019)

Assays:
Type in all cases: in vivo
[1] = tested on: large (Lg) crabgrass (Digitaria sanguinalis); experiment: Test C pre-/postemergence greenhouse test, plant response rating 0-100; settings: Postemergence; for Plant response rating, Crabgrass, Large: scale 0 to 100
In short: (§1)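 After treatment, pots stay in the greenhouse 13–15 days before each species is compared with untreated controls and given a 0–100 visual score. Preemergence seeds are in loam blended with sand; postemergence plants, 1–4 leaves, are in peat-based medium.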

[2] = tested on: ragweed (common ragweed, Ambrosia elatior); experiment: as above; settings: Postemergence; for Plant response rating, Ragweed: scale 0 to 100
In short: as §1

[3] = tested on: yellow nutsedge (Cyperus esculentus); experiment: as above; settings: Postemergence; for Plant response rating, Nutsedge, Yellow: scale 0 to 100
In short: as §1

[4] = tested on: morningglory (Ipomoea coccinea); experiment: as above; settings: Postemergence; for Plant response rating, Morningglory: scale 0 to 100
In short: as §1

[5] = tested on: galium (catchweed bedstraw, Galium aparine); experiment: as above; settings: Postemergence; for Plant response rating, Galium: scale 0 to 100
In short: as §1

[6] = tested on: corn (Zea mays); experiment: as above; settings: Postemergence; for Plant response rating, Corn: scale 0 to 100
In short: as §1

[7] = tested on: blackgrass (Alopecurus myosuroides); experiment: as above; settings: Postemergence; for Plant response rating, Blackgrass: scale 0 to 100
In short: as §1

[8] = tested on: pigweed (Amaranthus retroflexus); experiment: as above; settings: Postemergence; for Plant response rating, Pigweed: scale 0 to 100
In short: as §1

[9] = tested on: winter wheat (Triticum aestivum); experiment: as above; settings: Postemergence; for Plant response rating, Wheat: scale 0 to 100
In short: as §1

[10] = tested on: johnsongrass (Sorghum halepense); experiment: as above; settings: Postemergence; for Plant response rating, Johnsongrass: scale 0 to 100
In short: as §1

[11] = tested on: velvetleaf (Abutilon theophrasti); experiment: as above; settings: Postemergence; for Plant response rating, Velvetleaf: scale 0 to 100
In short: as §1

[12] = tested on: lambsquarters (Chenopodium album); experiment: as above; settings: Postemergence; for Plant response rating, Lambsquarters: scale 0 to 100
In short: as §1

[13] = tested on: winter barley (Hordeum vulgare); experiment: Test C postemergence greenhouse test, plant response rating 0-100
In short: (§2)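 Response is a visual 0–100 control rating taken 13 to 15 days post-treatment, with a dash marking no result. Plants ranged 2 to 18 cm when treated postemergence.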

[14] = tested on: windgrass (Apera spica-venti); experiment: as above
In short: as §2

CCn1cc(C(=O)c2ccccc2)c(-c2cc(Cl)cc(Cl)c2)n1 [Compound 31, [3-(3,5-dichlorophenyl)-1-ethyl-1H-pyrazol-4-yl]phenylmethanone]
0: Plant response rating, Barley ([13]; 16 g ai/ha) | Plant response rating (0 to 100), Barley ([13]; 31 g ai/ha) | Plant response rating (0 to 100), Barley ([13]; 62 g ai/ha) | Plant response rating (0 to 100), Barley ([13]; 125 g ai/ha) | Plant response rating, Windgrass ([14]; 16 g ai/ha) | Plant response rating (0 to 100), Windgrass ([14]; 62 g ai/ha) | Plant response rating (0 to 100), Windgrass ([14]; 125 g ai/ha)
55%: pest or weed control at 62 g/ha ([12]; Chenopodium album, post-emergence, 62 g ai/ha, read-out: Plant response rating (0 to 100), Lambsquarters)
5%: pest or weed control at 16 g/ha ([1]; Digitaria sanguinalis, post-emergence, 16 g ai/ha) | pest or weed control at 31 g/ha ([1]; Digitaria sanguinalis, post-emergence, 31 g ai/ha, read-out: Plant response rating (0 to 100), Crabgrass, Large) | pest or weed control at 62 g/ha ([1]; Digitaria sanguinalis, post-emergence, 62 g ai/ha, read-out: Plant response rating (0 to 100), Crabgrass, Large) | pest or weed control at 125 g/ha ([1]; Digitaria sanguinalis, post-emergence, 125 g ai/ha, read-out: Plant response rating (0 to 100), Crabgrass, Large) | pest or weed control at 125 g/ha ([2]; Ambrosia artemisiifolia, post-emergence, 125 g ai/ha, read-out: Plant response rating (0 to 100), Ragweed) | pest or weed control at 62 g/ha ([3]; Cyperus, post-emergence, 62 g ai/ha, read-out: Plant response rating (0 to 100), Nutsedge, Yellow) | pest or weed control at 125 g/ha ([3]; Cyperus, post-emergence, 125 g ai/ha, read-out: Plant response rating (0 to 100), Nutsedge, Yellow) | pest or weed control at 62 g/ha ([4]; Ipomoea, post-emergence, 62 g ai/ha, read-out: Plant response rating (0 to 100), Morningglory) | pest or weed control at 125 g/ha ([4]; Ipomoea, post-emergence, 125 g ai/ha, read-out: Plant response rating (0 to 100), Morningglory) | pest or weed control at 125 g/ha ([5]; Galium, post-emergence, 125 g ai/ha, read-out: Plant response rating (0 to 100), Galium) | pest or weed control at 62 g/ha ([10]; Sorghum halepense, post-emergence, 62 g ai/ha, read-out: Plant response rating (0 to 100), Johnsongrass)
50%: pest or weed control at 16 g/ha ([11]; Abutilon theophrasti, post-emergence, 16 g ai/ha)
0%: pest or weed control at 16 g/ha ([2]; Ambrosia artemisiifolia, post-emergence, 16 g ai/ha) | pest or weed control at 62 g/ha ([2]; Ambrosia artemisiifolia, post-emergence, 62 g ai/ha, read-out: Plant response rating (0 to 100), Ragweed) | pest or weed control at 16 g/ha ([3]; Cyperus, post-emergence, 16 g ai/ha) | pest or weed control at 16 g/ha ([4]; Ipomoea, post-emergence, 16 g ai/ha) | pest or weed control at 16 g/ha ([5]; Galium, post-emergence, 16 g ai/ha) | pest or weed control at 31 g/ha ([5]; Galium, post-emergence, 31 g ai/ha, read-out: Plant response rating (0 to 100), Galium) | pest or weed control at 62 g/ha ([5]; Galium, post-emergence, 62 g ai/ha, read-out: Plant response rating (0 to 100), Galium) | Corn plant response rating (crop injury, 0 = no effect, 100 = complete kill) at 16 g/ha ([6]; Zea mays, post-emergence, 16 g ai/ha) | plant injury at 31 g/ha ([6]; Zea mays, post-emergence, 31 g ai/ha) | plant injury at 62 g/ha ([6]; Zea mays, post-emergence, 62 g ai/ha) | plant injury at 125 g/ha ([6]; Zea mays, post-emergence, 125 g ai/ha) | pest or weed control at 16 g/ha ([7]; Alopecurus myosuroides, post-emergence, 16 g ai/ha) | pest or weed control at 31 g/ha ([7]; Alopecurus myosuroides, post-emergence, 31 g ai/ha, read-out: Plant response rating (0 to 100), Blackgrass) | pest or weed control at 62 g/ha ([7]; Alopecurus myosuroides, post-emergence, 62 g ai/ha, read-out: Plant response rating (0 to 100), Blackgrass) | pest or weed control at 125 g/ha ([7]; Alopecurus myosuroides, post-emergence, 125 g ai/ha, read-out: Plant response rating (0 to 100), Blackgrass) | plant injury at 16 g/ha ([9]; Triticum aestivum, post-emergence, 16 g ai/ha) | plant injury at 62 g/ha ([9]; Triticum aestivum, post-emergence, 62 g ai/ha, read-out: Plant response rating (0 to 100), Wheat) | plant injury at 125 g/ha ([9]; Triticum aestivum, post-emergence, 125 g ai/ha, read-out: Plant response rating (0 to 100), Wheat) | pest or weed control at 16 g/ha ([10]; Sorghum halepense, post-emergence, 16 g ai/ha)
80%: pest or weed control at 125 g/ha ([11]; Abutilon theophrasti, post-emergence, 125 g ai/ha, read-out: Plant response rating (0 to 100), Velvetleaf) | pest or weed control at 125 g/ha ([12]; Chenopodium album, post-emergence, 125 g ai/ha, read-out: Plant response rating (0 to 100), Lambsquarters)
25%: pest or weed control at 16 g/ha ([12]; Chenopodium album, post-emergence, 16 g ai/ha)
20%: pest or weed control at 16 g/ha ([8]; Amaranthus retroflexus, post-emergence, 16 g ai/ha)
75%: pest or weed control at 125 g/ha ([8]; Amaranthus retroflexus, post-emergence, 125 g ai/ha, read-out: Plant response rating (0 to 100), Pigweed) | pest or weed control at 62 g/ha ([11]; Abutilon theophrasti, post-emergence, 62 g ai/ha, read-out: Plant response rating (0 to 100), Velvetleaf)
10%: pest or weed control at 125 g/ha ([10]; Sorghum halepense, post-emergence, 125 g ai/ha, read-out: Plant response rating (0 to 100), Johnsongrass)

Fc1ccc(NN=C(c2ccccc2)c2c[nH]nc2-c2cc(Cl)cc(Cl)c2)cc1 [Compound 35]
85: Plant response rating (0 to 100), Pigweed ([8]; 62 g ai/ha)
65: Plant response rating (0 to 100), Velvetleaf ([11]; 125 g ai/ha)
15: Plant response rating (0 to 100), Ragweed ([2]; 62 g ai/ha)
55: Plant response rating, Ragweed ([2]; 500 g ai/ha)
50: Plant response rating, Ragweed ([2]; 250 g ai/ha)
60: Plant response rating (0 to 100), Velvetleaf ([11]; 62 g ai/ha)
98: Plant response rating (0 to 100), Lambsquarters ([12]; 62 g ai/ha) | Plant response rating (0 to 100), Lambsquarters ([12]; 125 g ai/ha)
0: Plant response rating (0 to 100), Nutsedge, Yellow ([3]; 62 g ai/ha) | Plant response rating (0 to 100), Morningglory ([4]; 62 g ai/ha) | Plant response rating (0 to 100), Morningglory ([4]; 125 g ai/ha) | Plant response rating (0 to 100), Galium ([5]; 62 g ai/ha) | Plant response rating (0 to 100), Galium ([5]; 125 g ai/ha) | Plant response rating, Galium ([5]; 250 g ai/ha) | Plant response rating (0 to 100), Corn ([6]; 62 g ai/ha) | Plant response rating (0 to 100), Corn ([6]; 125 g ai/ha) | Plant response rating (0 to 100), Blackgrass ([7]; 62 g ai/ha) | Plant response rating (0 to 100), Blackgrass ([7]; 125 g ai/ha) | Plant response rating, Blackgrass ([7]; 250 g ai/ha) | Plant response rating, Blackgrass ([7]; 500 g ai/ha) | Plant response rating (0 to 100), Wheat ([9]; 62 g ai/ha) | Plant response rating (0 to 100), Wheat ([9]; 125 g ai/ha) | Plant response rating, Wheat ([9]; 250 g ai/ha) | Plant response rating, Wheat ([9]; 500 g ai/ha) | Plant response rating (0 to 100), Johnsongrass ([10]; 62 g ai/ha) | Plant response rating (0 to 100), Johnsongrass ([10]; 125 g ai/ha) | Plant response rating, Johnsongrass ([10]; 250 g ai/ha) | Plant response rating, Johnsongrass ([10]; 500 g ai/ha) | Plant response rating (0 to 100), Barley ([13]; 62 g ai/ha) | Plant response rating (0 to 100), Barley ([13]; 125 g ai/ha) | Plant response rating, Barley ([13]; 250 g ai/ha, scale 0 to 100) | Plant response rating, Barley ([13]; 500 g ai/ha, scale 0 to 100) | Plant response rating (0 to 100), Windgrass ([14]; 62 g ai/ha) | Plant response rating (0 to 100), Windgrass ([14]; 125 g ai/ha) | Plant response rating, Windgrass ([14]; 250 g ai/ha, scale 0 to 100) | Plant response rating, Windgrass ([14]; 500 g ai/ha, scale 0 to 100)
70: Plant response rating, Velvetleaf ([11]; 250 g ai/ha) | Plant response rating, Velvetleaf ([11]; 500 g ai/ha)
40: Plant response rating (0 to 100), Ragweed ([2]; 125 g ai/ha)
100: Plant response rating (0 to 100), Pigweed ([8]; 125 g ai/ha) | Plant response rating, Pigweed ([8]; 250 g ai/ha) | Plant response rating, Pigweed ([8]; 500 g ai/ha) | Plant response rating, Lambsquarters ([12]; 250 g ai/ha) | Plant response rating, Lambsquarters ([12]; 500 g ai/ha)
5: Plant response rating (0 to 100), Crabgrass, Large ([1]; 62 g ai/ha) | Plant response rating (0 to 100), Crabgrass, Large ([1]; 125 g ai/ha) | Plant response rating, Crabgrass, Large ([1]; 250 g ai/ha) | Plant response rating, Crabgrass, Large ([1]; 500 g ai/ha) | Plant response rating (0 to 100), Nutsedge, Yellow ([3]; 125 g ai/ha) | Plant response rating, Nutsedge, Yellow ([3]; 250 g ai/ha) | Plant response rating, Nutsedge, Yellow ([3]; 500 g ai/ha) | Plant response rating, Morningglory ([4]; 250 g ai/ha) | Plant response rating, Morningglory ([4]; 500 g ai/ha) | Plant response rating, Galium ([5]; 500 g ai/ha) | Plant response rating, Corn ([6]; 250 g ai/ha) | Plant response rating, Corn ([6]; 500 g ai/ha)
